In US8962637B2, “Bicyclic compounds and their uses as dual c-SRC/JAK inhibitors” (Debiopharm S.A., priority 2010, dated 2015):

Experiments:
[1] = molecular target: JAK1 (Homo sapiens (Human), UniProt P23458); assay: JAK1 kinase inhibition; assay type: biochemical; settings: for inhibition at 0.1 µM: read-out: JAK1 % inhibition at 100 nM; for inhibition at 1 µM: read-out: JAK1 % inhibition at 1 μM
[2] = test system: Mda-Mb-231 cells; assay: Cell viability assay (XTT assay), Mda-Mb-231; assay type: cell-based; settings: Homo sapiens, 72 hrs
Experimental: Mda-Mb-231 or A549 cells were seeded onto a 96-well micro plate. Next day compounds were added to cells and incubated for 72 hrs. Compound treatment was done in triplicates. After 72 hrs cell culture media was aspirated from the wells and XTT working solution was added and plates were incubated for 2-5 hrs. The absorbance of the samples was measured with a spectrophotometer at a wavelength of 465 nm. EC50 values were calculated using Graphpad Prism. Tumor cell lines used in the examples of the present invention were procured from ATCC. Description of the cell lines is included in the following table: […]

[3] = molecular target: JAK2 (Homo sapiens (Human), UniProt O60674); assay: TR-FRET JAK2 kinase assay; assay type: biochemical; settings: ATP 10 μM; for inhibition at 0.1 µM: read-out: JAK2 % inhibition at 100 nM, 100 nM; for inhibition at 1 µM: read-out: JAK2 % inhibition at 1 μM
Experimental: (§1) Compounds were screened in the TR-FRET assay for JAK2 and c-Src kinase inhibition. Ultra light poly GT (Perkin Elmer) was used as the substrate for JAK2 and c-Src with the ATP concentration of 10 μM and 50 μM, respectively. […] The dose-response curve fitting was done using GraphPad Prism software.

[4] = molecular target: c-Src (Homo sapiens (Human), UniProt P12931); assay: TR-FRET c-Src kinase assay; assay type: biochemical; settings: ATP 50 μM; for inhibition at 0.1 µM: read-out: c-SRC % inhibition at 100 nM, 100 nM; for inhibition at 1 µM: read-out: c-SRC % inhibition at 1 μM
Experimental: as §1

[5] = test system: A431 cancer cell line; assay: Inhibition of cell growth in A431; assay type: cell-based; settings: Homo sapiens, A-431
[6] = test system: pStat3; assay: In-Cell-Western blot assay for pStat3 (ICW) in A431 cells; assay type: cell-based; settings: Homo sapiens, A-431, 2 hrs, read-out: pSTAT3 inhibition
Experimental: A431 cells were seeded onto a 96-well micro plate. After overnight serum starvation cells were incubated with compounds for 2 hrs. Cells were fixed with 4% paraformaldehyde in PBS and then permeabilized with 0.1% Triton X-100 in PBS (PBST). Cells were blocked with 5% BSA in PBST for 2 hrs, followed by overnight incubation with phospho Stat3 antibody. Cells were washed and incubated with europium-labeled anti-rabbit secondary antibody for 2 hrs. After washing enhancement solution was added to the wells. The micro-plate was read on the Victor instrument at the Europium setting. The Hoechst readings were used to normalize for cell number. IC50 values were calculated with the normalized europium values using Graphpad Prism.

JAK1, sequence (P23458 whole entry): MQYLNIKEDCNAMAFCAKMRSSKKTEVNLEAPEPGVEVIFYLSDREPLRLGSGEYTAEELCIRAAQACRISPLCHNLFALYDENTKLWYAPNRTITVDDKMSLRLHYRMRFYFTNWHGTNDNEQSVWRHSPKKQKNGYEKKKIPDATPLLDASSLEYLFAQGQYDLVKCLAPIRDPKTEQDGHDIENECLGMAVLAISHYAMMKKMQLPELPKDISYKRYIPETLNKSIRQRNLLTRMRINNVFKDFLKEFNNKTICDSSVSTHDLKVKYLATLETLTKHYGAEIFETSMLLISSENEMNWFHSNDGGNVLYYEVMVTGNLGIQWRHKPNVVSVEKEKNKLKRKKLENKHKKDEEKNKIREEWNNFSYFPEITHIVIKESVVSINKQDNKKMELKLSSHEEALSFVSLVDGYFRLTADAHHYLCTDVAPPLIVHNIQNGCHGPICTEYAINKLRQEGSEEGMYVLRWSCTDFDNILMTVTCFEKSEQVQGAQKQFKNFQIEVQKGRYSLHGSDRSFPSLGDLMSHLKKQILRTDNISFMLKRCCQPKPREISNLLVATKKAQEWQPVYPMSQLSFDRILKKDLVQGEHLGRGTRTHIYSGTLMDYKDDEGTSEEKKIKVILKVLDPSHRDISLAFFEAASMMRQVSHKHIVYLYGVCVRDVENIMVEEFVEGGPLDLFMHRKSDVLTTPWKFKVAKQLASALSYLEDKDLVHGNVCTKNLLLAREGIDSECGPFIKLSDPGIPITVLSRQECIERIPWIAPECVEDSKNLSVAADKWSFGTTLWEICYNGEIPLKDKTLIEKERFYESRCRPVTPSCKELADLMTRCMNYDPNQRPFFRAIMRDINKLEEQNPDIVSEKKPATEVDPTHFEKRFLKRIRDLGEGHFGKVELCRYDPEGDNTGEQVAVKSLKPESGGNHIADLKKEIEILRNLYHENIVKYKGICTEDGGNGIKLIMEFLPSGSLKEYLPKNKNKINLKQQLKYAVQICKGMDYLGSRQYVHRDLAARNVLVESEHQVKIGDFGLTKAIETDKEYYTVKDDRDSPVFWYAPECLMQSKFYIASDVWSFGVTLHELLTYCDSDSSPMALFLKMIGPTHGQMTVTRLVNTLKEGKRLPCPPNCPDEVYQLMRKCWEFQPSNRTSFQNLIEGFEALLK
JAK2, sequence (O60674 whole entry): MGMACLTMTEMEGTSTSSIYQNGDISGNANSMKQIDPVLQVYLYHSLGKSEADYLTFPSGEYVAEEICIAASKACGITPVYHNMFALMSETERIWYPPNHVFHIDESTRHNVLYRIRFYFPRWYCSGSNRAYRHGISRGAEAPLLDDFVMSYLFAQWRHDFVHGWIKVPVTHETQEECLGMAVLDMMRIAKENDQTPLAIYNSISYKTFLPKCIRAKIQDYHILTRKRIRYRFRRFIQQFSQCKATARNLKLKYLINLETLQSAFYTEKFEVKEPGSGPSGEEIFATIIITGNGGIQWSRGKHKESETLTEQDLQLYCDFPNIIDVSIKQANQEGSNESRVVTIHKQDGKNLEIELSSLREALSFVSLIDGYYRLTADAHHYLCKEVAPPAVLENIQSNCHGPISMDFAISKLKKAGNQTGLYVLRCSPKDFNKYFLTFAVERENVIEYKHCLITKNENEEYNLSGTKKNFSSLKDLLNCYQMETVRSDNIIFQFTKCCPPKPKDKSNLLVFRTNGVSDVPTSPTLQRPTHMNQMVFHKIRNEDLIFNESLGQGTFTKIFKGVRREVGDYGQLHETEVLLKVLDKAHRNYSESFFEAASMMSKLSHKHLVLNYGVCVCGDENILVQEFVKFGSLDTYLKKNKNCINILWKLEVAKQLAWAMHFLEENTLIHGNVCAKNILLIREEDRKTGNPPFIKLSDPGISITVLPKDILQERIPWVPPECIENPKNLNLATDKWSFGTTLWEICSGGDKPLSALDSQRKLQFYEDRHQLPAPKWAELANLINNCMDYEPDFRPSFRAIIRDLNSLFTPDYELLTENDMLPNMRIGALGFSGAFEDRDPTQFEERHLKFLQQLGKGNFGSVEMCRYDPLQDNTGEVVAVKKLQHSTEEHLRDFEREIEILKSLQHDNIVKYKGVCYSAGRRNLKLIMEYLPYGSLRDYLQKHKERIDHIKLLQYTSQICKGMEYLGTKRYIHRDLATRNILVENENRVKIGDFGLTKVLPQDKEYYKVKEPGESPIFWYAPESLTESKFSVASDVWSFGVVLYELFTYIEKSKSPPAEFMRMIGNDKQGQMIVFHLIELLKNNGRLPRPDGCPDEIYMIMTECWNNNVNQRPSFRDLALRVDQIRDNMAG
c-Src, sequence (P12931 whole entry, looked up): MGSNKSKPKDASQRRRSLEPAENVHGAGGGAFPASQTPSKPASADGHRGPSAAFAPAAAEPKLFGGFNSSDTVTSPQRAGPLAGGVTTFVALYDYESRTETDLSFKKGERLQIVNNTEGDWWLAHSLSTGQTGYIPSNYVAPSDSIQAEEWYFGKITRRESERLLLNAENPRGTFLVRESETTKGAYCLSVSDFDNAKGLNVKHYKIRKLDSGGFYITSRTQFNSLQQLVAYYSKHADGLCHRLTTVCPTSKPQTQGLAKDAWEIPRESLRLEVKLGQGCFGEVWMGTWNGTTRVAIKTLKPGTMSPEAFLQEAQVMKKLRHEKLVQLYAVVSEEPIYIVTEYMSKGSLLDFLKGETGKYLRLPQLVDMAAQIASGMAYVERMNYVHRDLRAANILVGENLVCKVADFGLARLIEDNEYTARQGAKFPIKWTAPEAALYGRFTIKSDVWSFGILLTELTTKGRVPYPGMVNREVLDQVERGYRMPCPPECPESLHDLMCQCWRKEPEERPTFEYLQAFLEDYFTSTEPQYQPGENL

| SMILES | inhibition at 0.1 µM [1] [%] | inhibition at 1 µM [1] [%] | JAK1 % inhibition at 100 nM ([1]; 100 nM) [%] | JAK1 % inhibition at 1 μM ([1]; 1 μM) [%] | EC50 [2] [nM] | inhibition at 0.1 µM [3] [%] | inhibition at 1 µM [3] [%] | IC50 [4] [nM] | EC50 [5] [nM] | IC50 [6] [nM] | IC50 [3] [nM] | inhibition at 0.1 µM [4] [%] | inhibition at 1 µM [4] [%] |
| --- | --- | --- | --- | --- | --- | --- | --- | --- | --- | --- | --- | --- | --- |
| Cc1ccc(NC(=O)c2cccc(C(F)(F)F)c2)cc1N1CCc2nc(Nc3ccc(OCCN4CCCC4)cc3)ncc2C1 [Compound 9, N-(4-Methyl-3-{2-[4-(2-pyrrolidin-1-yl-ethoxy)-phenylamino]-7,8-dihydro-5H-pyrido[4,3-d]pyrimidin-6-yl}-phenyl)-3-trifluoromethyl-benzamide] | 58 | 85 | – | – | – | – | – | – | – | – | – | – | – |
| Cc1ccc(NC(=O)c2cccc(C(F)(F)F)c2)cc1N1CCc2nc(Nc3ccncc3)ncc2C1 [Compound 15, N-{4-Methyl-3-[2-(pyridin-4-ylamino)-7,8-dihydro-5H-pyrido[4,3-d]pyrimidin-6-yl]-phenyl}-3-trifluoromethyl-benzamide] | 49 | 73 | – | – | – | – | – | – | – | – | – | – | – |
| Cc1ccc(NC(=O)c2cccc(C(F)(F)F)c2)cc1N1CCc2nc(Nc3ccc4c(c3)CCC(=O)N4)ncc2C1 [Compound 18, N-{4-Methyl-3-[2-(2-oxo-1,2,3,4-tetrahydro-quinolin-6-ylamino)-7,8-dihydro-5H-pyrido[4,3-d]pyrimidin-6-yl]-phenyl}-3-trifluoromethyl-benzamide] | 82 | 89 | – | – | – | – | – | – | – | – | – | – | – |
| Cc1ccc(NC(=O)c2cccc(C(F)(F)F)c2)cc1N1CCc2nc(Nc3cccnc3)ncc2C1 [Compound 23, N-{4-Method-3-[2-(pyridin-3-ylamino)-7,8-dihydro-5H-pyrido[4,3-d]pyrimidin-6-yl]-phenyl}-3-trifluoromethyl-benzamide] | 84 | 88 | – | – | – | – | – | – | – | – | – | – | – |
| Cc1ccc(NC(=O)c2cccc(C(F)(F)F)c2)cc1N1CCc2nc(Nc3ccnc(Cl)c3)ncc2C1 [Compound 25, N-{3-[2-(2-Chloro-pyridin-4-ylamino)-7,8-dihydro-5H-pyrido[4,3-d]pyrimidin-6-yl]-4-methyl-phenyl}-3-trifluoromethyl-benzamide] | 58 | 96 | – | – | – | – | – | – | – | – | – | – | – |
| Cc1ccc(NC(=O)c2cccc(C(F)(F)F)c2)cc1N1CCc2nc(Nc3ccncc3)ncc2C1=O [Compound 26, N-{4-Methyl-3-[5-oxo-2-(pyridin-4-ylamino)-7,8-dihydro-5H-pyrido[4,3-d]pyrimidin-6-yl]-phenyl}-3-trifluoromethyl-benzamide] | 57 | 79 | – | – | – | – | – | – | – | – | – | – | – |
| Cc1ccc(C(=O)Nc2cccc(C(F)(F)F)c2)cc1N1CCc2nc(Nc3ccc(Cl)cc3)ncc2C1 [Compound 28] | – | – | 66 | 79 | – | – | – | – | – | – | – | – | – |
| Cc1ccc(NC(=O)c2cccc(C(F)(F)F)c2)cc1N1CCc2nc(Nc3ccc(C(=O)N4CCN(C)CC4)cc3)ncc2C1=O [Compound 75, N-(4-Methyl-3-{2-[4-(4-methyl-piperazine-1-carbonyl)-phenylamino]-5-oxo-7,8-dihydro-5H-pyrido[4,3-d]pyrimidin-6-yl}-phenyl)-3-trifluoromethylbenza-mide] | – | – | – | – | 4670 | 83 | 97 | 19 | 1060 | – | – | – | – |
| Cc1ccc(NC(=O)c2cccc(C(F)(F)F)c2)cc1N1CCc2nc(Nc3ccc(CC(=O)N4CCN(C)CC4)cc3)ncc2C1=O [Compound 76, N-[4-Methyl-3-(2-{4-[2-(4-methyl-piperazin-1-yl)-2-oxo-ethyl]-phenylamino}-5-oxo-7,8-dihydro-5H-pyrido[4,3-d]pyrimidin-6-yl)-phenyl]-3-trifluoromethylbenza-mide] | – | – | – | – | 2150 | – | – | 30 | 135 | 130 | 61 | – | – |
| Cc1ccc(NC(=O)c2cccc(C(F)(F)F)c2)cc1N1CCc2nc(Nc3ccc(C(=O)NCCCN4CCCC4)cc3)ncc2C1=O [Compound 77, N-(4-methyl-3-(5-oxo-2-(4-(3-(pyrrolidin-1-yl)propylcarbamoyl)phenylamino)-7,8-dihydropyrido[4,3-d]pyrimidin-6(5H)-yl)phenyl)-3-(trifluoromethyl) benzamide] | – | – | – | – | 4920 | 80 | 96 | 17 | 512 | 510 | – | – | – |
| CNC(=O)c1ccc(Nc2ncc3c(n2)CCN(c2cc(NC(=O)c4cccc(C(F)(F)F)c4)ccc2C)C3)cn1 [Compound 83, 5-{6-[2-Methyl-5-(3-trifluoromethyl-benzoylamino)-phenyl]-5,6,7,8-tetrahydro-pyrido[4,3-d]pyrimidin-2-ylamino}-pyridine-2-carboxylic acid methylamide] | – | – | – | – | 305 | – | – | 4 | 240 | 240 | 32 | – | – |
| Cc1ccc(NC(=O)c2cccc(C(F)(F)F)c2)cc1N1CCc2nc(Nc3ccc(C(=O)NC4CCN(C)CC4)cc3)ncc2C1 [Compound 92] | – | – | – | – | 5 | – | – | – | 26 | 26 | – | – | – |
| Cc1ccc(NC(=O)c2cccc(C(F)(F)F)c2)cc1N1CCc2nc(Nc3cncnc3)ncc2C1 [Compound 94, N-{4-Methyl-3-[2-(pyrimidin-5-ylamino)-7,8-dihydro-5H-pyrido[4,3-d]pyrimidin-6-yl]-phenyl}-3-trifluoromethyl-benzamide] | – | – | – | – | 50 | – | – | 2 | 180 | 160 | 19 | – | – |
| Cc1ccc(NC(=O)c2cccc(C(F)(F)F)c2)cc1N1CCc2nc(Nc3ccc(C(=O)NCCO)cc3)ncc2C1 [Compound 98] | – | – | – | – | 50 | – | – | 1 | 61 | 60 | 7 | – | – |
| Cc1ccc(NC(=O)c2cccc(C(F)(F)F)c2)cc1N1CCc2nc(Nc3ccc(C(=O)N4CCCC4)cc3)ncc2C1 [Compound 99, N-(4-Methyl-3-{2-[4-(pyrrolidine-1-carbonyl)-phenylamino]-7,8-dihydro-5H-pyrido[4,3-d]pyrimidin-6-yl}-phenyl)-3-trifluoromethyl-benzamide] | – | – | – | – | 120 | – | – | 6 | 290 | 300 | 14 | – | – |
| Cc1ccc(NC(=O)c2ccc(C(F)(F)F)s2)cc1N1CCc2nc(Nc3ccc(OCCN4CCCC4)cc3)ncc2C1 [Compound 106, 5-Trifluoromethyl-thiophene-2-carboxylic acid (4-methyl-3-{2-[4-(2-pyrrolidin-1-yl-ethoxy)-phenylamino]-7,8-dihydro-5H-pyrido[4,3-d]pyrimidin-6-yl}-phenyl)-amide] | – | – | – | – | 310 | 85 | 98 | 2 | 220 | 220 | 18 | 99 | 100 |
| Cc1ccc(NC(=O)N2CCCCC2)cc1N1CCc2nc(Nc3ccc(OCCN4CCCC4)cc3)ncc2C1 [Compound 107, Piperidine-1-carboxylic acid (4-methyl-3-{2-[4-(2-pyrrolidin-1-yl-ethoxy)-phenylamino]-7,8-dihydro-5H-pyrido[4,3-d]pyrimidin-6-yl}-phenyl)-amide] | – | – | – | – | 610 | 72 | 94 | 1 | 120 | 120 | 40 | 93 | 98 |
| Cc1ccc(NC(=O)c2cccc(C(F)(F)F)c2)cc1N1CCc2nc(Nc3ccc(S(=O)(=O)NC4CC4)cc3)ncc2C1 [Compound 165, N-{3-[2-(4-Cyclopropylsulfamoyl-phenylamino)-7,8-dihydro-5H-pyrido[4,3-d]pyrimidin-6-yl]-4-methyl-phenyl}-3-trifluoromethyl-benzamide] | – | – | – | – | 440 | 74 | 93 | 16 | 320 | 257 | 54 | 93 | 98 |
| Cc1ccc(NC(=O)c2cccc(C(F)(F)F)c2)cc1N1CCc2nc(Nc3ccc(N4CCNCC4)cc3)ncc2C1=O [Compound 178, N-{4-Methyl-3-[5-oxo-2-(4-piperazin-1-yl-phenylamino)-7,8-dihydro-5H-pyrido[4,3-d]pyrimidin-6-yl]-phenyl}-3-trifluoromethyl-benzamide] | – | – | – | – | 1750 | 91 | 92 | 17 | – | 150 | 7 | 77 | 90 |
